Measurements: US20220411471A1, “CELL-PERMEABLE CYCLIC PEPTIDES AND USES THEREOF” (Unnatural Products Inc., priority 2019, published 2022)
Like-named read-outs stand apart in the source and are kept apart here. Non-standard residues stand in square brackets, D forms with d. Residues, ends and D or L forms follow the SMILES beside them. Ala(4-thiazolyl) = N[C@@H](Cc1cscn1)C(=O)O; NMePhe(4-F) = CN[C@@H](Cc1ccc(F)cc1)C(=O)O; Phe(4-Cl) = N[C@@H](Cc1ccc(Cl)cc1)C(=O)O; Phe(4-F) = N[C@@H](Cc1ccc(F)cc1)C(=O)O; NMeF = CN[C@@H](Cc1ccccc1)C(=O)O; hSer = N[C@@H](CCO)C(=O)O; NMeA = CN[C@@H](C)C(=O)O; dNMeA = CN[C@H](C)C(=O)O; Nme = COCCNCC(=O)O; Sar = CNCC(=O)O

What was measured:
[1] = target: T1, Human MDM4 (HDM4) 1-114 (Homo sapiens, UniProt O15151); test: Fluorescence polarization assay 2, MDM4 (Table 4); type: binding
T1 construct: Human MDM4 (HDM4) 1-114
T1 sequence (O15151 1-114): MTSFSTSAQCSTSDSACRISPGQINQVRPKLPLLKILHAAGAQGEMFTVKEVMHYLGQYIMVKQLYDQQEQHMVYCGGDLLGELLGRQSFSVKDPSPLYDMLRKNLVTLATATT
Procedure: (§1) Compounds dissolved in DMSO were pin transferred (˜100-200 nL) to the 384 well plate containing the MDM4/p53 solution. After incubation for 60 minutes, the fluorescence polarization was read on a Molecular Devices SpectraMax plate reader equipped with a Fluorescein FP cartridge. In addition to probe alone (positive control) and probe/MDM4 (negative control), a titration of linear p53(18-26) was included on every plate as an additional control. IC50 values were fit using either Prism or Collaborative Drug Discovery.

[2] = target: T2, Human MDM2 (HDM2) 1-116 (Homo sapiens, UniProt Q00987); test: Fluorescence polarization assay 2, MDM2 (Table 4); type: binding
T2 construct: Human MDM2 (HDM2) 1-116
Procedure: as §1, with “MDM2/p53” for “MDM4/p53”, “probe/MDM2” for “probe/MDM4”

[3] = Table 4, fluorescence polarization, read-out: MDM4 IC50
[4] = Table 4, fluorescence polarization, read-out: MDM2 IC50

T2 sequence (Q00987 1-116): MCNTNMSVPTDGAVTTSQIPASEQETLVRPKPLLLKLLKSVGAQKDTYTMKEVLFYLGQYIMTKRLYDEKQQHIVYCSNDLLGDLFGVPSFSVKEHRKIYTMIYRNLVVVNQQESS

Row | IC50 [1, 3] [nM] | IC50 [2, 4] [nM] | SMILES | IC50 [1] [nM] | IC50 [2] [nM]
1 | < 50 | < 25 | COCC[C@@H]1NC(=O)[C@H]2CCCN2C(=O)[C@H](Cc2ccccc2)N(C)C(=O)[C@H](Cc2ccc(Cl)cc2)NC(=O)[C@H](C(C)C)NC(=O)[C@H](Cc2ccc(F)cc2)NC(=O)CN(CCOC)C(=O)[C@@H](C)N(C)C(=O)[C@H](Cc2cscn2)NC(=O)[C@H](C)N(C)C1=O [Compound 41, COCC[C@@H]1NC(=O)[C@H]2CCCN2C(=O)[C@H](CC2=CC=CC=C2)N(C)C(=O)[C@H](CC2=CC=C(Cl)C=C2)NC(=O)[C@@H](NC(=O)[C@H](CC2=CC=C(F)C=C2)NC(=O)CN(CCOC)C(=O)[C@@H](C)N(C)C(=O)[C@H](CC2=CSC=N2)NC(=O)[C@H](C)N(C)C1=O)C(C)C] (cyclo([Ala(4-thiazolyl)][dNMeA][Nme][Phe(4-F)]V[Phe(4-Cl)][NMeF][dP][hSer](Me)[NMeA])) | – | –
2 | – | – | COCC[C@@H]1NC(=O)[C@H]2CCCN2C(=O)[C@H](Cc2ccccc2)N(C)C(=O)[C@H](Cc2ccc(Cl)cc2)NC(=O)CN(C)C(=O)[C@H](Cc2ccc(F)cc2)NC(=O)[C@H](C)N(C)C(=O)[C@@H](C)N(C)C(=O)[C@H](Cc2cscn2)NC(=O)[C@H](C)N(C)C1=O [Compound 33, COCC[C@@H]1NC(=O)[C@H]2CCCN2C(=O)[C@H](CC2=CC=CC=C2)N(C)C(=O)[C@H](CC2=CC=C(Cl)C=C2)NC(=O)CN(C)C(=O)[C@H](CC2=CC=C(F)C=C2)NC(=O)[C@H](C)N(C)C(=O)[C@@H](C)N(C)C(=O)[C@H](CC2=CSC=N2)NC(=O)[C@H](C)N(C)C1=O] (cyclo([Ala(4-thiazolyl)][dNMeA][NMeA][Phe(4-F)][Sar][Phe(4-Cl)][NMeF][dP][hSer](Me)[NMeA])) | 50 to 100 | < 25
3 | > 150 | 25 to 50 | COCC[C@@H]1NC(=O)[C@H]2CCCN2C(=O)[C@H](Cc2ccccc2)N(C)C(=O)[C@H](Cc2ccc(Cl)cc2)NC(=O)[C@H](C)N(C)C(=O)[C@H](Cc2ccc(F)cc2)NC(=O)[C@H](C)N(C)C(=O)[C@@H](C)N(C)C(=O)[C@H](Cc2cscn2)NC(=O)[C@H](C)N(C)C1=O [Compound 34, COCC[C@@H]1NC(=O)[C@H]2CCCN2C(=O)[C@H](CC2=CC=CC=C2)N(C)C(=O)[C@H](CC2=CC=C(Cl)C=C2)NC(=O)[C@H](C)N(C)C(=O)[C@H](CC2=CC=C(F)C=C2)NC(=O)[C@H](C)N(C)C(=O)[C@@H](C)N(C)C(=O)C@H](CC2=CSC=N2)NC(=O)[C@H](C)N(C)C1=O] (cyclo([Ala(4-thiazolyl)][dNMeA][NMeA][Phe(4-F)][NMeA][Phe(4-Cl)][NMeF][dP][hSer](Me)[NMeA])) | – | –

Row | SMILES | IC50 [1, 3] [nM] | IC50 [2, 4] [nM] | IC50 [1] [nM] | IC50 [2] [nM]
4 | COCC[C@@H]1NC(=O)[C@H]2CCCN2C(=O)[C@H](Cc2ccc(F)cc2)N(C)C(=O)[C@H](Cc2ccc(Cl)cc2)NC(=O)[C@@H]2CCCN2C(=O)[C@H](Cc2ccc(F)cc2)NC(=O)CN(CCOC)C(=O)[C@@H](C)N(C)C(=O)[C@H](Cc2cscn2)NC(=O)[C@H](C)N(C)C1=O [Compound 47, COCC[C@@H]1NC([C@H]2CCCN2C([C@@H](N(C([C@@H](NC([C@@H]3CCCN3C([C@@H](NC(CN(C([C@H](N(C([C@@H](NC([C@@H](N(C1=O)C)C)=O)Cc4ncsc4)=O)C)C)=O)CCOC)=O)Cc5ccc(F)cc5)=O)=O)Cc6ccc(Cl)cc6)=O)C)Cc7ccc(F)cc7)=O)=O] (cyclo([Ala(4-thiazolyl)][dNMeA][Nme][Phe(4-F)]P[Phe(4-Cl)][NMePhe(4-F)][dP][hSer](Me)[NMeA])) | 100 to 150 | 25 to 50 | – | –
